The record followed here is patent publication US20250002475A1 (EPICS THERAPEUTICS, priority 2023, published 2025).

What is called IC50 is the midpoint of a concentration-inhibition curve.

In one test the test system is Caov-3 cells. The test can be described thus: Caov-3 cellular viability assay (ATP-Lite, 72 h). It counts as cell-based. The settings on record: Homo sapiens, ATP-Lite luminescence, % viability relative to DMSO. Summed up: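 10000 cells/well treated 72 h at 37 °C, 5% CO2, in RPMI-1640 with 10% FBS and 0.1% DMSO final. Viability by ATP-Lite One Step luminescence. Expressed as % of DMSO control, with IC50 from each compound's concentration-response curve.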

In test [1] the target is T1, recombinant METTL3/METTL14 complex (Homo sapiens, UniProt Q86U44).
T1 construct: purchased Active Motif 311970; host or cells: Sf9 cells
Description: METTL3/14 Scintillation Proximity Assay (SPA), RNA methyltransferase activity. Format: biochemical. The settings on record: 5.31 nM METTL3/14 complex, 250 nM RNA substrate, 1 μM 3H-SAM, 90 min; for compounds marked * best of the two separated forms. (Scintillation proximity formats need no separation of bound from free tracer.)

The test system of a further test is Kasumi-1 cells. The test can be described thus: Kasumi-1 cellular viability assay (ATP-Lite, 72 h). Particulars: Homo sapiens, ATP-Lite luminescence, % viability relative to DMSO. Format: cell-based. Summed up: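 Kasumi-1 AML cells, 15000/well in RPMI-1640 with 10% FBS, were exposed to compound titrations (0.1% final DMSO) for 72 h at 37 °C, 5% CO2. ATP-Lite One Step luminescence gave % viability versus DMSO control, and IC50 came from the concentration-response.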

T1 sequence (Q86U44 whole entry): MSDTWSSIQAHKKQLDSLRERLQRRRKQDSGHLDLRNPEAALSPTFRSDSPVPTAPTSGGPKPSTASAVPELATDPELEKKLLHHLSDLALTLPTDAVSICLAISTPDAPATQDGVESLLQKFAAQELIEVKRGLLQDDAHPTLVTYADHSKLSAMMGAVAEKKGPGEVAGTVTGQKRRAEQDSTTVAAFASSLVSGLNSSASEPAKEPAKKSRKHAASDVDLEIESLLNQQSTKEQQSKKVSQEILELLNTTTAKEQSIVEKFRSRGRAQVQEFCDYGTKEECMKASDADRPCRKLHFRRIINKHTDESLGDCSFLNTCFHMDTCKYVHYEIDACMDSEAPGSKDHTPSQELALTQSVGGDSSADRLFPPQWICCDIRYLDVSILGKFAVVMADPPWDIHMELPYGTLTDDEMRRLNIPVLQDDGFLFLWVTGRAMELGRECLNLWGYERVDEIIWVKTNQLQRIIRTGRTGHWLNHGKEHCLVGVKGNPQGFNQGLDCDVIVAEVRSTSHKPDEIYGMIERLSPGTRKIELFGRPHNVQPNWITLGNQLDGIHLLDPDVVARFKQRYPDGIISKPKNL
T1 sequence (Q9HCE5 whole entry partner): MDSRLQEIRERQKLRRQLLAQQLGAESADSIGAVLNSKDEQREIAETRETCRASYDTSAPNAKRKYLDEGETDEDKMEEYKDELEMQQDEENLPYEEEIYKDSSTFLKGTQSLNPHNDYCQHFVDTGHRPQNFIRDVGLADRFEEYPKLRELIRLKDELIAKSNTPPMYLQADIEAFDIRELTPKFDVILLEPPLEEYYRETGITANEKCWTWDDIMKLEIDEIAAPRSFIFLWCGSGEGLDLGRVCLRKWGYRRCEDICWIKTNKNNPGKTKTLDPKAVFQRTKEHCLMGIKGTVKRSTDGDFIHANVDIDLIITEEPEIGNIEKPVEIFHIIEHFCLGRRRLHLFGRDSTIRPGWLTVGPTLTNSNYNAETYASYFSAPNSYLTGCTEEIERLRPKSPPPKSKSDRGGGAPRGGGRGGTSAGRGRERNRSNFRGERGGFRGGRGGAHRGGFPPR

Take `CC(n1cnc(-c2cc(N(C)C)cnn2)c1)n1ccc(N2CCC[C@@H](NCC3CC3)C2)cc1=O` (single isomer, unassigned) [Compound 243]: the results for the IC50 (with Caov-3 cells; in test [1]; with Kasumi-1 cells) were 500 to 5000 nM, at most 50 nM and 500 to 5000 nM, respectively.

For the molecule `CC(c1ccc(N2CCC[C@@H](NCC3CC3)C2)cn1)n1cc(-c2cncc(C3CC3)c2)nn1` (single isomer, unassigned) [Compound 357], the IC50 is at most 500 nM in the test on Caov-3 cells, at most 50 nM in test [1] and at most 500 nM in the test with Kasumi-1 cells.

Turning to `CC(c1cnn(-c2cncc(N3CCCC3)n2)c1)n1ccc(N2CCC[C@@H](NCC3CC3)C2)cc1=O` (single isomer, unassigned) [Compound 220], the IC50 with Caov-3 cells was at most 500 nM; in test [1], at most 50 nM; with Kasumi-1 cells it was at most 500 nM.

Regarding `CC(c1ccc(N2CCC[C@@H](NCC3CCC3)C2)cn1)n1cc(-c2cncc(N3CC4CC4C3)n2)nn1` (single isomer, unassigned) [Compound 286], the IC50 in the test with Caov-3 cells was at most 500 nM; in test [1], at most 50 nM; with Kasumi-1 cells it was at most 500 nM.

Regarding `COc1cncc(-c2cn(Cn3ccc(N4CCC[C@@H](NCC5CCC5)C4)cc3=O)nn2)c1` [Compound 063, (R)-4-(3-((cyclobutylmethyl)amino)piperidin-1-yl)-1-((4-(5-methoxypyridin-3-yl)-1H-1,2,3-triazol-1-yl)methyl)pyridin-2(1H)-one], the figures for the IC50 (with Caov-3 cells; in test [1]; in the test with Kasumi-1 cells) were 500 to 5000 nM, at most 50 nM and 500 to 5000 nM, respectively.

On to `CC(n1cc(-c2cc(=O)n3ccccc3n2)nn1)n1ccc(N2CCC[C@@H](NCC3CCC3)C2)cc1=O` (single isomer, unassigned) [Compound 088], for which the IC50 in the test with Caov-3 cells is 500 to 5000 nM; in test [1], at most 50 nM; with Kasumi-1 cells it was 500 to 5000 nM.

In the case of `COc1cncc(-c2cn(C3(c4ccc(N5CCC[C@@H](NCC6CC6)C5)cn4)COC3)nn2)c1` [Compound 249, (R)-N-(cyclopropylmethyl)-1-(6-(3-(4-(5-methoxypyridin-3-yl)-1H-1,2,3-triazol-1-yl)oxetan-3-yl)pyridin-3-yl)piperidin-3-amine], the results for the IC50 (in the test on Caov-3 cells; in test [1]; with Kasumi-1 cells) were at most 500 nM, at most 50 nM and at most 500 nM, respectively.

With `COc1cncc(-c2cn(C(C)n3ccc(N4CCC[C@@H](NCC5CCC5)C4)cc3=O)nn2)c1` (single isomer, unassigned) [Compound 055], the values for the IC50 (in the test with Caov-3 cells; in test [1]; in the test on Kasumi-1 cells) were at most 500 nM, at most 50 nM and at most 500 nM, respectively.

Regarding `CC(n1cc(-c2cncc(N3CC[C@H](C)C3)n2)nn1)n1ccc(N2CCC[C@@H](NCC3CC3)C2)cc1=O` (single isomer, unassigned) [Compound 240], the IC50 was at most 500 nM with Caov-3 cells, at most 50 nM in test [1] and at most 500 nM with Kasumi-1 cells.

In the case of `CC1(CN[C@@H]2CCCN(c3ccc(C4(C(=O)Nc5cc(=O)n6ccccc6n5)COC4)nc3)C2)CC1` [Compound 331, (R)-3-(5-(3-(((1-methylcyclopropyl)methyl)amino)piperidin-1-yl)pyridin-2-yl)-N-(4-oxo-4H-pyrido[1,2-a]pyrimidin-2-yl)oxetane-3-carboxamide], the figures for the half-maximal inhibitory concentration (IC50) (with Caov-3 cells; in test [1]; in the test with Kasumi-1 cells) were at most 500 nM, at most 50 nM and at most 500 nM, respectively.

As to `O=C(Nc1cc(=O)n2ccsc2n1)C1(c2ccc(N3CCC[C@@H](NCC4CCC4)C3)cn2)COC1` [Compound 311, (R)-3-(5-(3-((cyclobutylmethyl)amino)piperidin-1-yl)pyridin-2-yl)-N-(5-oxo-5H-thiazolo[3,2-a]pyrimidin-7-yl)oxetane-3-carboxamide], the IC50 in the test on Caov-3 cells is at most 500 nM; in test [1] it was at most 50 nM; in the test with Kasumi-1 cells, at most 500 nM.

For the molecule `CC(C(=O)Nc1cncc(N2CCCC2)c1)n1ccc(N2CCC[C@@H](NCC3CCC3)C2)cc1=O` (stereo partly drawn) [Compound 208, 2-(4-((R)-3-((cyclobutylmethyl)amino)piperidin-1-yl)-2-oxopyridin-1(2H)-yl)-N-(5-(pyrrolidin-1-yl)pyridin-3-yl)propanamide], the figures for the IC50 (with Caov-3 cells; in test [1]; in the test with Kasumi-1 cells) were 500 to 5000 nM, at most 50 nM and 500 to 5000 nM, respectively.

Turning to `O=C(NCc1ccc(N2CCCC(NCC34CC(F)(C3)C4)C2)nn1)c1cc(=O)n2ccccc2n1` (stereo not drawn) [Compound 011, N-((6-(3-(((3-fluorobicyclo[1.1.1]pentan-1-yl)methyl)amino)piperidin-1-yl)pyridazin-3-yl)methyl)-4-oxo-4H-pyrido[1,2-a]pyrimidine-2-carboxamide], the 50% inhibitory concentration (IC50) in the test with Caov-3 cells was over 5000 nM; in test [1] it was 50 to 500 nM; in the test on Kasumi-1 cells, over 5000 nM.

`O=C(Nc1cc(=O)n2ccccc2n1)C1(c2ccc(N3CCC[C@@H](NCC4(C(F)(F)F)CCC4)C3)cn2)COC1` [Compound 337, (R)-N-(4-oxo-4H-pyrido[1,2-a]pyrimidin-2-yl)-3-(5-(3-(((1-(trifluoromethyl)cyclobutyl)methyl)amino)piperidin-1-yl)pyridin-2-yl)oxetane-3-carboxamide]: the IC50 in the test on Caov-3 cells was at most 500 nM; in test [1] it was at most 50 nM; with Kasumi-1 cells it was 500 to 5000 nM.

For `CC(c1ccc(N2CCC[C@@H](NCC3CCC3)C2)nn1)n1cc(-c2cncc(N3CC4CC4C3)n2)nn1` (single isomer, unassigned) [Compound 284], the half-maximal inhibitory concentration (IC50) is at most 500 nM in the test with Caov-3 cells, at most 50 nM in test [1] and at most 500 nM in the test on Kasumi-1 cells.

As to `CC(n1cc(-c2cncc(N3CC[C@@H](C)C3)n2)nn1)n1ccc(N2CCC[C@@H](NCC3CC3)C2)cc1=O` (single isomer, unassigned) [Compound 238], the IC50 was at most 500 nM in the test on Caov-3 cells, at most 50 nM in test [1] and at most 500 nM with Kasumi-1 cells.

As for `COc1cncc(-c2cn(Cc3ccc(N4CCC[C@@H](NCC5CCC5)C4)cc3)nn2)c1` [Compound 068, (R)-N-(cyclobutylmethyl)-1-(4-((4-(5-methoxypyridin-3-yl)-1H-1,2,3-triazol-1-yl)methyl)phenyl) piperidin-3-amine], the half-inhibitory concentration (IC50) is 500 to 5000 nM in the test on Caov-3 cells, at most 50 nM in test [1] and 500 to 5000 nM in the test on Kasumi-1 cells.

Consider `CC(c1ccc(N2CCC[C@@H](NCC3(C)CC3)C2)cn1)c1nnc(-c2cncc(N3CCCC3)n2)s1` (single isomer, unassigned) [Compound 366], for which the concentration for half-maximal inhibition (IC50) is at most 500 nM in the test with Caov-3 cells, at most 50 nM in test [1] and at most 500 nM in the test with Kasumi-1 cells.

On to `COc1cc(-c2cn(Cc3nnc(N4CCCC(NCC5CCC5)C4)s3)nn2)c2cn[nH]c2c1` (stereo not drawn) [Compound 036, N-(cyclobutylmethyl)-1-(5-((4-(6-methoxy-1H-indazol-4-yl)-1H-1,2,3-triazol-1-yl)methyl)-1,3,4-thiadiazol-2-yl)piperidin-3-amine], for which the IC50 with Caov-3 cells is over 5000 nM; in test [1] it was at most 50 nM; with Kasumi-1 cells, over 5000 nM.

As to `CC(C(=O)Nc1cncc(N2CCCC2)n1)c1ccc(N2CCC[C@@H](NCC3CCC3)C2)nn1` (stereo partly drawn) [Compound 279, 2-(6-((R)-3-((cyclobutylmethyl)amino)piperidin-1-yl)pyridazin-3-yl)-N-(6-(pyrrolidin-1-yl)pyrazin-2-yl)propanamide], the IC50 in the test with Caov-3 cells was 500 to 5000 nM; in test [1], at most 50 nM; in the test with Kasumi-1 cells, 500 to 5000 nM.

Regarding `CC(c1ccc(N2CCC[C@@H](NCC3CCC3)C2)cn1)n1cc(-c2cncc(N(C)C)c2)nn1` (single isomer, unassigned) [Compound 143], the IC50 in the test on Caov-3 cells was at most 500 nM; in test [1], at most 50 nM; with Kasumi-1 cells, at most 500 nM.

`c1ccn(-c2cncc(-c3cn(C4(c5ccc(N6CCC[C@@H](NCC7CCC7)C6)cn5)COC4)nn3)n2)c1` [Compound 295, (R)-1-(6-(3-(4-(6-(1H-pyrrol-1-yl)pyrazin-2-yl)-1H-1,2,3-triazol-1-yl)oxetan-3-yl)pyridin-3-yl)-N-(cyclobutylmethyl)piperidin-3-amine]: the results for the IC50 (in the test with Caov-3 cells; in test [1]; in the test with Kasumi-1 cells) were 500 to 5000 nM, at most 50 nM and at most 500 nM, respectively.

As for `CC(n1cc(-c2cncc(N3CC(F)(F)C3)c2)nn1)n1ccc(N2CCC[C@@H](NCC3CC3)C2)cc1=O` (stereo partly drawn) [Compound 197], the figures for the IC50 (in the test on Caov-3 cells; in test [1]; in the test with Kasumi-1 cells) were 500 to 5000 nM, at most 50 nM and 500 to 5000 nM, respectively.

Consider `CC(n1cc(-c2cncc(N3CCCC3)c2)nn1)n1ccc(N2CCC[C@@H](NCC3CCC3)C2)cc1=O` (single isomer, unassigned) [Compound 160], for which the IC50 is at most 500 nM in the test on Caov-3 cells, at most 50 nM in test [1] and at most 500 nM with Kasumi-1 cells.

Consider `COc1cc(-c2cn(Cc3ccc(N4CCC[C@@H](NCC5CCC5)C4)nn3)nn2)c2cn[nH]c2c1` [Compound 001, (R)-N-(cyclobutylmethyl)-1-(6-((4-(6-methoxy-1H-indazol-4-yl)-1H-1,2,3-triazol-1-yl)methyl)pyridazin-3-yl)piperidin-3-amine], for which the values for the half-maximal inhibitory concentration (IC50) (with Caov-3 cells; in test [1]; with Kasumi-1 cells) were at most 500 nM, at most 50 nM and 500 to 5000 nM, respectively.

For the molecule `c1ncc(C2CC2)cc1-c1cn(C2(c3ccc(N4CCC[C@@H](NC5CCC5)C4)cn3)COC2)nn1` [Compound 334, (R)-N-cyclobutyl-1-(6-(3-(4-(5-cyclopropylpyridin-3-yl)-1H-1,2,3-triazol-1-yl)oxetan-3-yl)pyridin-3-yl)piperidin-3-amine], the IC50 in the test on Caov-3 cells was at most 500 nM; in test [1] it was at most 50 nM; in the test with Kasumi-1 cells it was at most 500 nM.
